From ChEMBL document CHEMBL5620419, “Discovery of new Lenalidomide derivatives as potent and selective GSPT1 degraders” (Eur J Med Chem, 2023)

Molecular target: Protein cereblon/Eukaryotic peptide chain release factor GTP-binding subunit ERF3A (Homo sapiens, UniProt P15170+Q96SW2)
Experiment: PROTAC activity at CRBN/GSPT1 in human U-937 cells assessed as degradation of GSPT1 measured after 6 hrs by Western blot analysis
Type: cell-based

Chain of Protein cereblon/Eukaryotic peptide chain release factor GTP-binding subunit ERF3A (Q96SW2 whole entry): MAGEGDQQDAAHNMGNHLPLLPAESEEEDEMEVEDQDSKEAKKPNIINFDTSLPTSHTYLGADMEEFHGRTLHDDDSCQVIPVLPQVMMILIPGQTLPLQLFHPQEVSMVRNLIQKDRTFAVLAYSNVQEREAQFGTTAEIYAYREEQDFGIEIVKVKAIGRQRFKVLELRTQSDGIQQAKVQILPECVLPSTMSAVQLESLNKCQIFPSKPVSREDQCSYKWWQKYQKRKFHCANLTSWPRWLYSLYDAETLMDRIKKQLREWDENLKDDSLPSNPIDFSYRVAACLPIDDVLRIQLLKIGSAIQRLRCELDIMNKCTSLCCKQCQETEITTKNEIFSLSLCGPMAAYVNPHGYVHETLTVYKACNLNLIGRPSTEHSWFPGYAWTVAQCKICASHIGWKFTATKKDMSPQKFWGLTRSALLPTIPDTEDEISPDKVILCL
Chain of Protein cereblon/Eukaryotic peptide chain release factor GTP-binding subunit ERF3A (P15170 whole entry): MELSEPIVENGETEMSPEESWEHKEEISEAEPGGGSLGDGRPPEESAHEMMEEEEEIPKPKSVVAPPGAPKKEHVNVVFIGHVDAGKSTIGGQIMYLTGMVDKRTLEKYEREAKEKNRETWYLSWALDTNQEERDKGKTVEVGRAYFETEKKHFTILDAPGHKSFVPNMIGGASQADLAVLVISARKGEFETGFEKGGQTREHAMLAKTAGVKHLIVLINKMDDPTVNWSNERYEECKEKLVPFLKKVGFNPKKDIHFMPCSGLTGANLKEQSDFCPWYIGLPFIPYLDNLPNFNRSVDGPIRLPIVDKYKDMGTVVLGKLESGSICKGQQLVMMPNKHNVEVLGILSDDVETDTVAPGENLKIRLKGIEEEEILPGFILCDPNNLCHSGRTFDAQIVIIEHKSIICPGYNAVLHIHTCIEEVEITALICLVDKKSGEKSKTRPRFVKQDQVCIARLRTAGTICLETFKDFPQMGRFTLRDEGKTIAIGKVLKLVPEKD

EC50 [nM] | SMILES
86 | Cc1c(Cl)cc(NC(=O)CCc2ccc3c(c2)C(=O)N(C2CCC(=O)NC2=O)C3)cc1CN1CC2(COC2)C1 (stereo not drawn)
3060 | Cc1ccc(NC(=O)/C=C/c2cccc3c2CN(C2CCC(=O)NC2=O)C3=O)cc1Cl (stereo not drawn)
143 | Cc1cc(NC(=O)CCc2ccc3c(c2)C(=O)N(C2CCC(=O)NC2=O)C3)ccc1Cl (stereo not drawn)
